{"source": "patent US20060189533A1", "about": "“Stable pharmaceutical dosage forms of teriparatide” (Nastech Pharmaceutical Company Inc., priority 2004, published 2006)", "origin": "cited, not measured here", "key": {"[1]": {"details": "up to 500 μg per day for 7 days; up to 1,000 μg per day for 3 months"}, "ovariectomized rat": {"tested_on": "ovariectomized rat", "details": "ovariectomized rat model"}, "[2]": {"details": "anesthetized rats"}}, "note": "Like-named read-outs stand apart in the source and are kept apart here. Where no end group is shown, it is not given here."}
{"molecule": "CC[C@H](C)[C@H](NC(=O)[C@H](CCC(=O)O)NC(=O)[C@H](CO)NC(=O)[C@@H](NC(=O)[C@@H](N)CO)C(C)C)C(=O)N[C@@H](CCC(N)=O)C(=O)N[C@@H](CC(C)C)C(=O)N[C@@H](CCSC)C(=O)N[C@@H](Cc1cnc[nH]1)C(=O)N[C@@H](CC(N)=O)C(=O)N[C@@H](CC(C)C)C(=O)NCC(=O)N[C@@H](CCCCN)C(=O)N[C@@H](Cc1cnc[nH]1)C(=O)N[C@@H](CC(C)C)C(=O)N[C@@H](CC(N)=O)C(=O)N[C@@H](CO)C(=O)N[C@@H](CCSC)C(=O)N[C@@H](CCC(=O)O)C(=O)N[C@@H](CCCN=C(N)N)C(=O)N[C@H](C(=O)N[C@@H](CCC(=O)O)C(=O)N[C@@H](Cc1c[nH]c2ccccc12)C(=O)N[C@@H](CC(C)C)C(=O)N[C@@H](CCCN=C(N)N)C(=O)N[C@@H](CCCCN)C(=O)N[C@@H](CCCCN)C(=O)N[C@@H](CC(C)C)C(=O)N[C@@H](CCC(N)=O)C(=O)N[C@@H](CC(=O)O)C(=O)N[C@H](C(=O)N[C@@H](Cc1cnc[nH]1)C(=O)N[C@@H](CC(N)=O)C(=O)N[C@@H](Cc1ccccc1)C(=O)O)C(C)C)C(C)C", "note": "[Teriparatide]", "values": [{"measurement": "safety of the intranasal route", "setting": "[1]", "value": "no safety concerns were noted"}]}
{"molecule": "hPTH1-31NH2: linear PTH analogue with only AC-stimulating activity, SEQ ID NO: 3 (SVSEIQLMHNLGKHLNSMERVEWLRKKLQDV-NH2; listed as Homo sapiens)", "values": [{"measurement": "activity in the restoration of bone loss", "setting": "ovariectomized rat", "value": "fully active"}]}
{"molecule": "human growth hormone: protein whose nasal bioavailability is reported to be modestly increased by N-acetyl-L-cysteine", "values": [{"measurement": "nasal bioavailability", "setting": "[2]; before increase by N-acetyl-L-cysteine", "value": 7.5, "unit": "%"}, {"measurement": "nasal bioavailability", "setting": "[2]; with N-acetyl-L-cysteine", "value": 12.2, "unit": "%"}]}
